Assay [1] has as its system full-length FLAG-tagged wild-type TRPM6. Put plainly: Peptide pull-down, full-length wild-type TRPM6. It counts as binding, human. The note with it: full-length wild-type TRPM6, HEK-293 lysate, 3 μg peptide, 4°C; anti-FLAG immunoblot. The method, then: (§1) The peptides biotin-C6-[…]-TIPFTPVQLFAGEEITV (wild-type) and biotin-C6-LKSPQE-[…] (mutant) were purchased from GL Biochem. For a peptide pull-down, 1–5 mg of lysate was incubated with 3 μg of the respective peptide for 10 min at 4°C under gentle agitation, followed by 5 min of incubation with 10–20 μl of streptavidin beads at 4°C. The immunoprecipitates were washed three times with lysis buffer containing 0.15 M NaCl and then twice with buffer A. Proteins were eluted by resuspending washed immunoprecipitates in 30 μl of SDS sample buffer.
(§2) Figure 2 Identification of dimerization motif residues in TRPM6 (A) Structural model of TRPM7 α-kinase depicting the N-terminal non-catalytic α-helix of one monomer that interacts with the kinase segment of the other monomer. (B) Fluorescence polarization analysis of wild-type (WT) and mutant (Mut) dimerization motif peptides with E. coli-purified GST-tagged TRPM6-(1730–end). […] The samples were analysed by immunoblotting with anti-GST antibody (top panel). […] Proteins were separated by SDS/PAGE, stained with Coomassie Blue (top and middle gels) and MBP phosphorylation was detected by autoradiography (bottom gel). […] Proteins were separated by SDS/PAGE, stained with Coomassie Blue (top and middle gels) and MBP phosphorylation was detected by autoradiography (bottom gel). […] The pull-down samples were analysed by immunoblotting with anti-FLAG antibody (top panel). […]
On the technique in general: A western blot detects proteins with antibodies after separation by electrophoresis.

Assay [2] concerns the target T1, GST-tagged TRPM6-(1730–end) (Homo sapiens, UniProt Q9BX84).
T1 construct: E. coli-purified GST-tagged TRPM6-(1730–end); made in house; host or cells: E. coli BL21
T1 sequence (Q9BX84 1730-2022 limits assumed): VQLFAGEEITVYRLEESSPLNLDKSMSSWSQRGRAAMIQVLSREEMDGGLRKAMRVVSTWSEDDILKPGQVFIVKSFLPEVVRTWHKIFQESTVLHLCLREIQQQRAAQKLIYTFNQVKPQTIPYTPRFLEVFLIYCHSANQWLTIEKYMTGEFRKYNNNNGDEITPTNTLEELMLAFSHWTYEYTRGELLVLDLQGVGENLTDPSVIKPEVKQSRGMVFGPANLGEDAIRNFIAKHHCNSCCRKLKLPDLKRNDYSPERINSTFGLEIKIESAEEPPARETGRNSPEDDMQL
Put plainly: Peptide pull-down, TRPM6-(1730–end). It counts as binding. The note with it: HEK-293 lysate 1–5 mg, 3 μg biotinylated peptide, 10 min at 4°C, streptavidin beads; anti-GST immunoblot. How it is done: as §1
(Figure 2A). We next utilized fluorescence polarization technology, a sensitive method to evaluate interactions between proteins and peptides. Using this methodology, we first evaluated how polarization of a fluorescently labelled peptide encompassing the dimerization motif was affected by titration of TRPM6-(1730–end) (which lacks the dimerization motif). […]
Figure 2 Identification of dimerization motif residues in TRPM6 (A) Structural model of TRPM7 α-kinase depicting the N-terminal non-catalytic α-helix of one monomer that interacts with the kinase segment of the other monomer. (B) Fluorescence polarization analysis of wild-type (WT) and mutant (Mut) dimerization motif peptides with E. coli-purified GST-tagged TRPM6-(1730–end). […] The samples were analysed by immunoblotting with anti-GST antibody (top panel). […]

Assay [3] has as its system GST-tagged TRPM6-(1730–end) A1836N. Nature of the assay: Peptide pull-down, A1836N mutant. It counts as binding, human. The note with it: HEK-293 lysate, 3 μg peptide, 4°C, anti-GST immunoblot. The method, then:
(§3) The peptides biotin-C6-[…]-TIPFTPVQLFAGEEITV (wild-type) and biotin-C6-LKSPQE-[…] (mutant) were purchased from GL Biochem. For a peptide pull-down, 1–5 mg of lysate was incubated with 3 μg of the respective peptide for 10 min at 4°C under gentle agitation, followed by 5 min of incubation with 10–20 μl of streptavidin beads at 4°C. The immunoprecipitates were washed three times with lysis buffer containing 0.15 M NaCl and then twice with buffer A. Proteins were eluted by resuspending washed immunoprecipitates in 30 μl of SDS sample buffer. […]
(§4) Figure 3 Analysis of the dimerization pocket residues (A) Structural model of TRPM6 based on TRPM7 α-kinase depicting the binding of Leu^1718 and Leu^1721 to other residues in the α-kinase domain. […] The samples were analysed by immunoblotting with anti-GST antibody (top panel). […] (C) Fluorescence polarization analysis of the dimerization motif peptide with E. coli purified GST-tagged TRPM6-(1730–end) and indicated mutants. […] Proteins were separated by SDS/PAGE, stained with Coomassie Blue (top and middle panels) and MBP phosphorylation was detected by autoradiography (bottom panel). […] Proteins were separated by SDS/PAGE, stained with Coomassie Blue (top and middle gels) and MBP phosphorylation was detected by autoradiography (bottom gel). […]

For assay [4], the system named is GST-tagged TRPM6-(1730–end) L1840A. Nature of the assay: Peptide pull-down, L1840A mutant. It counts as binding, human. The note with it: HEK-293 lysate, 3 μg peptide, 4°C, anti-GST immunoblot. The method, then:
as §3, §4

Assay [5] concerns full-length FLAG-tagged kinase-inactive TRPM6. Nature of the assay: Peptide pull-down, full-length kinase-inactive TRPM6. It counts as binding, human. The note with it: full-length kinase-inactive TRPM6, HEK-293 lysate, 3 μg peptide, 4°C; anti-FLAG immunoblot. The method, then:
as §1, §2

Here are results for 1 substance from article PMC4019984, “Kinase and channel activity of TRPM6 are co-ordinated by a dimerization motif and pocket interaction” (Biochemical Journal, 2014).

“biotin-C6-LKSPQEPHHHYSAIERNNLMRLSQ-TIPFTPVQLFAGEEITV [biotinylated dimerization motif peptide, biotin-C6 wild-type dimerization motif peptide; conjugated to streptavidin–Sepharose]”: the “interaction with biotinylated dimerization motif peptide (pull-down)” value in assay [1] and in assay [5] was “do not interact” each time. The “affinity purification of TRPM6-(1730–end) (pull-down)” value in assay [2] is listed as “could efficiently purify TRPM6-(1730–end)”. For the same substance, the “binding to biotinylated dimerization motif peptide (pull-down)” value in assay [3] and in assay [4] was “abolished binding to the peptide” each time.
